This passage reports k2 results from ChEMBL document CHEMBL1149135, “Aza-peptide Michael acceptors: a new class of inhibitors specific for caspases and other clan CD cysteine proteases” (J Med Chem, 2004).

In one assay the target is T1, Caspase-3 (Homo sapiens) (UniProt P42574).
T1 sequence (whole entry): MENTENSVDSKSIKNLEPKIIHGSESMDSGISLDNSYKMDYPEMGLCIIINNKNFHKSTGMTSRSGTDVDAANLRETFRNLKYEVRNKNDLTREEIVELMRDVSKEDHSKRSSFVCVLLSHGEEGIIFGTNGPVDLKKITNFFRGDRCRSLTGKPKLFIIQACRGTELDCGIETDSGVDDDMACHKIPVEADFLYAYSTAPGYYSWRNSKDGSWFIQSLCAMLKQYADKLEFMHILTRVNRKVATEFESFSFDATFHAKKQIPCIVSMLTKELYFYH
Description: Compound was evaluated for potent inhibition of caspase-3.

The next assay concerns the target T2, Caspase-6 (Homo sapiens) (UniProt P55212).
T2 sequence (whole entry): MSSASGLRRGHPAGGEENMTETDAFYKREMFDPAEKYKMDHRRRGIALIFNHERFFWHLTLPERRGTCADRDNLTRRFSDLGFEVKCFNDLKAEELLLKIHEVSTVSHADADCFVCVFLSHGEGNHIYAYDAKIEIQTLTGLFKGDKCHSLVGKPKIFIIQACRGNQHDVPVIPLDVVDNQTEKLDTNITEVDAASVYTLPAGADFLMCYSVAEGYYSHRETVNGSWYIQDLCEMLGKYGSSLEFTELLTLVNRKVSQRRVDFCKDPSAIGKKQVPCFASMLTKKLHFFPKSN
Description: Compound was evaluated for potent inhibition of caspase-6.

The target of the next assay is Caspase-8 (Homo sapiens) (UniProt Q14790). Description: Compound was evaluated for potent inhibition of caspase-8.
Caspase-8 (Homo sapiens), sequence (Q14790 217-374 limits assumed): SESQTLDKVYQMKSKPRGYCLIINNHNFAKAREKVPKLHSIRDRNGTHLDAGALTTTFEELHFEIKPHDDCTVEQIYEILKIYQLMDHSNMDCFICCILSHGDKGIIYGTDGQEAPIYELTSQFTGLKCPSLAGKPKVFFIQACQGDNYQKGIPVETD
Caspase-8 (Homo sapiens), sequence (Q14790 385-479 limits assumed): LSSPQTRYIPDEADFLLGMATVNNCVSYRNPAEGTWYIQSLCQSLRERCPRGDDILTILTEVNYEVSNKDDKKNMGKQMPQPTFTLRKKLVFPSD
Assay [1] has as its system Clostripain (Clostridium histolyticum). Kind of assay: Compound was evaluated for irreversible inhibition of clostripain.
For assay [2], the system named is Lys-gingipain (Porphyromonas gingivalis). Description: Compound was evaluated for irreversible inhibition of Lys-gingipain.

Take `CC(C)[C@H](NC(=O)[C@H](CCC(=O)O)NC(=O)[C@H](CC(=O)O)NC(=O)OCc1ccccc1)C(=O)NN(CC(=O)O)C(=O)/C=C/C(=O)N(C)Cc1ccccc1`: the k2 at Caspase-3 (Homo sapiens) came to 2.64e+06 M⁻¹ s⁻¹; on Caspase-6 (Homo sapiens), 9500 M⁻¹ s⁻¹; on Caspase-8 (Homo sapiens), 90300 M⁻¹ s⁻¹.

For `CC(C)[C@H](NC(=O)[C@H](CCC(=O)O)NC(=O)[C@H](CC(=O)O)NC(=O)OCc1ccccc1)C(=O)NN(CC(=O)O)C(=O)/C=C/C(=O)NCc1ccccc1`, the k2 turned out to be 1.75e+06 M⁻¹ s⁻¹ at Caspase-3 (Homo sapiens), 3210 M⁻¹ s⁻¹ on Caspase-6 (Homo sapiens) and 78200 M⁻¹ s⁻¹ on Caspase-8 (Homo sapiens).

As for `CCOC(=O)/C=C/C(=O)N(CC(=O)O)NC(=O)[C@@H](NC(=O)[C@H](CCC(=O)O)NC(=O)[C@H](CC(C)C)NC(=O)OCc1ccccc1)[C@@H](C)O`, the values for the k2 on Caspase-3 (Homo sapiens), on Caspase-6 (Homo sapiens) and at Caspase-8 (Homo sapiens) were 5560 M⁻¹ s⁻¹, 18700 M⁻¹ s⁻¹ and 237000 M⁻¹ s⁻¹, respectively.

On to `CCOC(=O)/C=C/C(=O)N(CCCN)NC(=O)[C@H](CC(C)C)NC(=O)OCCc1ccccc1`, for which the results for the k2 in assay [1] and in assay [2] were 788 M⁻¹ s⁻¹ and 927000 M⁻¹ s⁻¹, respectively.

With `CC(C)C[C@H](NC(=O)OCc1ccccc1)C(=O)N[C@@H](CCC(=O)O)C(=O)N[C@H](C(=O)NN(CC(=O)O)C(=O)/C=C/C(=O)OCc1ccccc1)[C@@H](C)O`, the k2 at Caspase-3 (Homo sapiens) amounted to 4600 M⁻¹ s⁻¹; at Caspase-6 (Homo sapiens) it was 47600 M⁻¹ s⁻¹; at Caspase-8 (Homo sapiens) it was 98400 M⁻¹ s⁻¹.

As to `CC(C)C[C@H](NC(=O)OCc1ccccc1)C(=O)N[C@@H](CCC(=O)O)C(=O)N[C@H](C(=O)NN(CC(=O)O)C(=O)/C=C/C(=O)N(C)Cc1ccccc1)[C@@H](C)O`, the k2 was found to be 6000 M⁻¹ s⁻¹ on Caspase-3 (Homo sapiens), 10800 M⁻¹ s⁻¹ on Caspase-6 (Homo sapiens) and 169000 M⁻¹ s⁻¹ at Caspase-8 (Homo sapiens).

Take `CCOC(=O)/C=C/C(=O)N(CC(=O)O)NC(=O)[C@@H](NC(=O)[C@H](CCC(=O)O)NC(=O)[C@H](CC(=O)O)NC(=O)OCc1ccccc1)C(C)C`: the k2 at Caspase-3 (Homo sapiens) was 2.13e+06 M⁻¹ s⁻¹; on Caspase-6 (Homo sapiens), 35600 M⁻¹ s⁻¹; at Caspase-8 (Homo sapiens) it was 273000 M⁻¹ s⁻¹.

For the molecule `CCOC(=O)/C=C/C(=O)N(CCCCN)NC(=O)[C@H](CC(C)C)NC(=O)OCCc1ccccc1`, the k2 came out at 40800 M⁻¹ s⁻¹ in assay [1] and 3.28e+06 M⁻¹ s⁻¹ in assay [2].

On to `CC(C)[C@H](NC(=O)[C@H](CCC(=O)O)NC(=O)[C@H](CC(=O)O)NC(=O)OCc1ccccc1)C(=O)NN(CC(=O)O)C(=O)/C=C/C(=O)OCc1ccccc1`, for which the results for the k2 at Caspase-3 (Homo sapiens), at Caspase-6 (Homo sapiens) and at Caspase-8 (Homo sapiens) were 1.7e+06 M⁻¹ s⁻¹, 8470 M⁻¹ s⁻¹ and 121000 M⁻¹ s⁻¹, respectively.
